pEC50, pIC50: −log10 of the molar value. Like-named read-outs stand apart in the source and are kept apart here.
Key:
[1] = system: PSMA-positive CWR22 xenografts; assay: Efficacy in PSMA-positive CWR22 xenografts; format: in vivo, C.B-17 scid mice; conditions: for TGD: dosing interval study, five cycles
Description: (§1) Experiment: Male SCID mice were implanted by serial passage of CWR22 prostate tumor xenograft. […] All treatments were given intravenously. Tumor growth and animal health were continually monitored throughout the study with tumor growth measured every 3 days.
Experiment: Male C.B-17 SCID mice bearing CWR22 xenografts approximately 200 mm^3 in size received IV injections (200 μL constant volume) of the test articles according to the dose and schedule as shown in Table 22.
Male C.B-17 scid mice bearing CWR22 xenografts approximately 200 mm^3 in size received IV injections (200 μL constant volume) of the test articles according to the dose and schedule shown in the Table 23.
The objective of this study was to determine how much the dosing interval could be increased at this dosage before a loss of efficacy in terms of TGD would be observed. […] The growth delays for the other schedules were: q7d, 53.0 days; q21d, 48.0 days; and q28d, 26.9 days. Similar to other studies using the CWR22 xenograft model, no curative responses were observed, with all tumors eventually resuming growth (FIG. 18).
as §1, with “intravenously and on a schedule of every three days for 5 doses.” for “intravenously.”
as §1, with “intravenously and on a schedule of every seven days for 5 doses.” for “intravenously.”

[2] = target: LNCaP; assay: Binding to LNCaP by FACS; parameters: species or system human
[3] = system: metastatic androgen-independent prostate cancer; assay: Phase 1 dose-escalating trial of DM1 conjugated deJ591; format: in vivo, human
Description: Based upon emerging clinical safety and PK, repeat dosing at four week intervals was subsequently permitted.
DLT is defined as the occurrence of one or more of the following:
• Grade 4 thrombocytopenia (platelet count <10,000/mm3) • Requirement for platelet transfusion and/or other methods to increase platelet count • Febrile neutropenia (ANC <1000/mm^3 concurrent with a temperature >38.5° C.). (Per the Infection/Febrile Neutropenia subsection of the NCI CTC version 2.0, febrile neutropenia is, by definition, a >Grade 3 toxicity) • Grade 4 neutropenia without fever of >7 days duration • Grade 3 neutropenia requiring granulocyte colony-stimulating factor (G-CSF) administration • Grade 4 anemia (hemoglobin <6.5 g/dL) • Grade 3 anemia (hemoglobin 6.5-<8.0 g/dL) in a subject receiving EpogenÒNon-hematologic • Any Grade 3 non-hematologic toxicity considered by the investigator to be possibly related to study drug MTD is defined as the highest dose level with an observed incidence of DLT in no more than 1 out of 6 subjects.
There will be a 4 week (28 days±2 days) interval between dose administrations. […] Subjects will receive the same dose administered on day 1 (Visit 1) of their first infusion.
The starting dose is 18 mg/m2. Subjects will be followed for 3 weeks after the first dose to determine dose escalation. Dose escalation will continue until DLT and MTD are determined. Two phases of dose escalation will be used. In the first phase, one subject will be enrolled at each dose level. In the second phase, three subjects will be enrolled at each dose level. The planned dose increments are 80%, 60%, 40%, 30%, 30%, 30%, 30%, 30% and 30% above the previous dose, with a total of ten dose levels planned. All dose increments will be adjusted to 30% above the previous dose if DLT or two or more occurrences of non dose-limiting grade 2 or greater drug-related toxicity (NDLT) are observed in subjects treated at any of the first three dose levels. Non dose-limiting grade 2 or greater toxicity includes grade 2 or 3 hematologic toxicity and grade 2 non-hematologic toxicity. Drug-related toxicity is toxicity considered by the investigator to be related to study drug. In the first phase, one subject will be enrolled at the lowest dose level and observed for 3 weeks to ensure that there are no significant adverse events. If no DLT or NDLT is observed during the 3 week observation period, dose escalation will continue and a new subject will be enrolled at the next predefined dose level. Single subjects will continue to be enrolled and observed at sequentially increasing dose levels until one subject experiences a DLT or a NDLT. If DLT is observed in a single subject at any dose level in the first phase, the second phase will begin, where 3 subjects per dose level will be enrolled. The dose assignment for the first subject enrolled in the second phase will be one dose level lower than the dose level at which DLT is observed. If NDLT is observed in the subject treated at any of the first three dose levels, dose escalation will stop and two more subjects will be enrolled at the current dose level. Subsequent dose escalation and enrollment will be determined by the number and grade of toxicities observed in these two additional subjects. If DLT or NDLT is not observed, the first phase will continue. Dose escalation will proceed to the next predefined dose level, with one subject enrolled at that dose level. If DLT is observed in one subject, three subjects will be enrolled at the current dose level and the second phase will begin. The dose increments for subsequent dose escalations will be 30% for the remainder of the study. If DLT is observed in both subjects, dose escalation will stop and three subjects will be enrolled at the previous dose level, marking the beginning of the second phase. The previous dose level will be evaluated as potential MTD. No further dose escalation will occur. […]

[4] = system: PSMA-negative cells; conditions: read-out: Non-specific in vitro cytotoxicity towards PSMA-negative cells, IC50

deJ591-DM1: deJ591 conjugated via SPP disulfide linker to the maytansinoid DM1, DM1/antibody ratio about 3.5
return to normal growth kinetics following the last dose ([1]; 7.25 mg/kg every seven days for 5 doses): approximately 10 days
Tumor Growth Delay ([1]; 7.28 mg/kg (120 μg/kg DM1-equivalents), q3dX5, IV): 27.1 days
Tumor Growth Delay ([1]; 7.28 mg/kg (120 μg/kg DM1-equivalents), qdX5, IV): 19.6 days
tumor growth ([1]; 14.5 mg/kg every seven days for 5 doses): suppression of tumor growth with some reduction from the initial tumor volume
tumor growth ([1]; 14.5 mg/kg, 7 and 14 day dosing interval): apparent block in tumor growth with a resumption of normal growth kinetics approximately 30 days after the last dose
tumor growth ([1]; 14.5 mg/kg, 21 or 28 day dosing interval): slowed growth
Tumor Growth Delay ([1]; 14.56 mg/kg (240 μg/kg DM1-equivalents), q3dX5, IV): 36.7 days
Tumor Growth Delay ([1]; 14.56 mg/kg (240 μg/kg DM1-equivalents), qdX5, IV): 26.9 days
Tumor Growth Delay ([1]; Comparison II, 4.8 mg/kg (90 μg/kg DM1-equivalents), q3dX5): 31.9 days
Tumor Growth Delay ([1]; Comparison II, 6.5 mg/kg (120 μg/kg DM1-equivalents), q3dX5): 37.8 days
Tumor Growth Delay ([1]; Comparison II, 6.5 mg/kg (120 μg/kg DM1-equivalents), q7dX5): 33.9 days
Tumor Growth Delay ([1]; Comparison II, 9.7 mg/kg (180 μg/kg DM1-equivalents), q3dX5): 42.7 days
Tumor Growth Delay ([1]; Comparison II, 12.93 mg/kg (240 μg/kg DM1-equivalents), q3dX5): 46.4 days
Tumor Growth Delay ([1]; Comparison II, 12.93 mg/kg (240 μg/kg DM1-equivalents), q7dX5): 66.8 days
associated toxicity ([1]; all dosages, Comparison I): less for all dosages of deJ591-DM1 relative to maytansine alone
curative effect ([1]; doses and schedules of Comparison I): non-curative
TGD ([1]; 12.93 mg/kg, q7d): 53.0 days
TGD ([1]; 12.93 mg/kg, q14d): 75.7 days
TGD ([1]; 12.93 mg/kg, q21d): 48.0 days
TGD ([1]; 12.93 mg/kg, q28d): 26.9 days
Efficacious dosage in SCID mouse xenografts, DM1-Equivalents received ([1]; mouse, in vivo): ~0.72 mg/m^2
In vivo activity - mouse xenograft model ([1]; reference standard batch): Delays tumor growth
effect on large tumors, 500 to 2000 mm^3 ([1]; second course, 12.93 mg/kg): potent regressions
pEC50 ([2]; listed as 1552-60S): 8.10
pEC50 ([2]; listed as N067020302): 8.16
tolerability ([3]; 18 to 343 mg/m^2): well-tolerated in the majority of patients
MTD ([3]; 23 patients, 18 to 343 mg/m^2): ≥ 343 mg/m^2
DLT ([3]; highest dose level 343 mg/m^2): Only one DLT, an uncomplicated febrile neutropenia
PK of antibody related analytes (J591-DM1, Total J591 and free J591) ([3]; in vivo): typical of monoclonal antibodies
Plasma levels of DM1-SH ([3]; in vivo): detectable
anti-antibodies ([3]; in vivo): No anti-antibodies against DM1 conjugated deJ591, deJ591 or DM1 were detected
disease response ([3]; one patient, 264 mg/m^2): PR by RECIST criteria
durable decrease in PSA ([3]; one patient, 264 mg/m^2): 70%
sustained PSA decline ([3]; one patient, 343 mg/m^2): > 50%
pIC50 ([4]; listed as 1552-60S): 7.87
pIC50 ([4]; listed as N067020302): 7.77
